In PMC3950497 (Advances in Pharmacological Sciences, 2014):
Like-named read-outs stand apart in the source and are kept apart here.

Experiments:
[1] = type: physicochemical
Method: Freeze-thaw stability of stephaglabrine sulfate solution was evaluated because samples were stored at −20°C. The stability of stephaglabrine pool solutions (in water-acetonitrile 20%) at concentrations of 10 μg/mL, 50 μg/mL, and 100 μg/mL was evaluated after three cycles of overnight freezing following 3 hours of bench thaw at ambient temperature. The loss of stepharine was evaluated by comparison with freshly prepared standard solutions of the same concentrations. Loss of 10% and less was accepted.

[2] = type: in vivo, rabbit; details: for Measured mean concentration of stephaglabrin in plasma: i.m. stephaglabrine sulfate 0.1 mg/kg single dose
Method: The selected rabbits were administrated intramuscular with stephaglabrine sulfate at doses 0.1 mg/kg as it was established before. Each animal received a single dose.
Quantitative analysis was acquired in SRM (selected reactions monitoring) mode on Agilent 6490 triple quadrupole mass spectrometer (Agilent, USA) operated in the positive mode and equipped with Jet Stream ESI ion source. Stepharine was detected in the scheduled selected reaction monitoring (SRM) with unit resolution at both first (Q1) and third (Q3) quadrupoles. The retention time point of stepharine was determined as 9.8 with isolation width of 1 minute for the scheduled SRM method application. The optimal conditions of the analysis were achieved as follows: capillary voltage was −4500 V, nozzle voltage was set at −1200 V, flow rate of drying gas (N2) was 16 L/min, flow rate of sheath gas (N2) was 8 L/min, temperature of drying gas was set at 340°C, temperature of sheath gas was set at 290°C, and nebulizer gas was operated at 20 psi. The transitions for protonated stepharine [M+H]^+ 298.4 → 161.2, 192.1, 238.2 were selected for SRM analysis. The isolation window for the fragment ions was set at 0.27 amu, the optimum fragmentor voltage was adjusted to 310 V and collision energy −19 eV. All the samples including calibration points were analyzed in three replications. 30 μL of the samples was injected and loaded on chromatographic column. Calibration was performed on standard samples solution prepared in 20% acetonitrile with concentration of stepharine from 10^−4 μg/mL to 100 μg/mL. Chromatographic separation was performed on Thermo Hypersil-Keystone ODS column (Thermo Scientific, USA) 100 × 2.1 mm, 5 μm particle size, at flow rate of 200 μL/min and with the following elution conditions: loading onto the column at maintained 20% of mobile phase B for 3 minutes, increasing the gradient to 50% of B at 5 minutes following increasing the gradient to 100% of mobile phase B at 15 minutes. The column was washed and maintained at 100% mobile phase B from 15 to 22 minutes and the composition was decreased to 20% of solvent B at 23 minute. The column was reequilibrated at starting conditions of solvent A-solvent B system ([…], v/v) for 10 minutes at flow 200 μL/min.
0.5 mL of blood samples from each animal was collected from ear vein in the tubes with EDTA before administration and at 15, 30, 60, 90, 120, 180, 480, 720, and 1440 minutes after drug ingestion. Blood samples were immediately put on ice and centrifuged at 5000 g for 10 minutes at 4°C within one hour after blood collection. The obtained plasma was placed in sterile tube and kept at −20°C until analysis.
Plasma proteins were precipitated with acetonitrile. For this purpose, two volumes of acetonitrile were added to 100 μL of rabbit plasma into 1.5 mL plastic tube and 30% ammonia hydroxide was added to adjust the pH to 10. After vortex-mixing for 15 minutes at ambient temperature one volume of chloroform was added three times consequently for 2 hours and incubated at 30°C under regular stirring at 900 rpm at each occasion. The first fraction of upper organic layer was collected after 2 hours of incubation, the second and the third fractions of chloroform extract were collected after additional 30 and 60 minutes of incubation, respectively. The collected fractions were combined and transferred to a new tube and dried under vacuum at 30°C. The resulting pellet was resuspended in 100 μL of 20% water-acetonitrile solution and centrifuged at 14000 rpm for 15 minutes immediately before use. The obtained solution was used for LC-MS analysis. […]

In the case of `COc1cc2c3c(c1OC)C1(C=CC(=O)C=C1)C[C@@H]3NCC2` [stepharine], the “loss during three freeze-thaw cycles” value ([1]; solutions in water-acetonitrile 20% at 10, 50 and 100 μg/mL, overnight freezing, 3 hours bench thaw at ambient temperature) is reported as “less than 6%”, the mean sample stability ([1]; three freeze-thaw cycles, solutions in water-acetonitrile 20%) is reported as 94.6% and the “time of maximum concentration (C max)” value ([2]; all rabbits, i.m. 0.1 mg/kg stephaglabrine sulfate) is reported as 90 min. The “Measured mean concentration of stephaglabrin in plasma” value (“Measured mean concentration” below) ([2]; rabbit ST01, 15 min after administration) was 8.1 ± 0.6 ng/mL, the “Measured mean concentration” value ([2]; rabbit ST01, 30 min after administration) was 9.4 ± 0.5 ng/mL and the “Measured mean concentration” value ([2]; rabbit ST01, 60 min after administration) was 10.0 ± 0.3 ng/mL. For the same molecule, the “Measured mean concentration” value ([2]; rabbit ST01, 90 min after administration) was 13.9 ± 0.9 ng/mL, the “Measured mean concentration” value ([2]; rabbit ST01, 120 min after administration) was 5.8 ± 0.1 ng/mL and the “Measured mean concentration” value ([2]; rabbit ST01, 180 min after administration) was 3.8 ± 0.1 ng/mL. The “Measured mean concentration” value ([2]; rabbit ST01, 480 min after administration) was 1.8 ± 0.02 ng/mL, the “Measured mean concentration” value ([2]; rabbit ST01, 720 min after administration) was 1.5 ± 0.02 ng/mL and the “Measured mean concentration” value ([2]; rabbit ST01, 1440 min after administration) was 0 ng/mL. The “Measured mean concentration” value ([2]; rabbit ST02, 15 min after administration) was 7.9 ± 0.2 ng/mL, the “Measured mean concentration” value ([2]; rabbit ST02, 30 min after administration) was 16.5 ± 0.8 ng/mL and the “Measured mean concentration” value ([2]; rabbit ST02, 60 min after administration) was 29.3 ± 2.2 ng/mL. For the same molecule, the “Measured mean concentration” value ([2]; rabbit ST02, 90 min after administration) was 33.9 ± 2.8 ng/mL, the “Measured mean concentration” value ([2]; rabbit ST02, 120 min after administration) was 10.4 ± 0.5 ng/mL and the “Measured mean concentration” value ([2]; rabbit ST02, 180 min after administration) was 7.8 ± 0.3 ng/mL. For the same molecule, the “Measured mean concentration” value ([2]; rabbit ST02, 480 min after administration) was 1.2 ± 0.02 ng/mL, the “Measured mean concentration” value ([2]; rabbit ST02, 720 min after administration) was 1.3 ± 0.01 ng/mL and the “Measured mean concentration” value ([2]; rabbit ST02, 1440 min after administration) was 0 ng/mL. For the same molecule, the “Measured mean concentration” value ([2]; rabbit ST03, 15 min after administration) was 6.8 ± 0.4 ng/mL, the “Measured mean concentration” value ([2]; rabbit ST03, 30 min after administration) was 14.8 ± 0.2 ng/mL and the “Measured mean concentration” value ([2]; rabbit ST03, 60 min after administration) was 19.5 ± 0.6 ng/mL. For the same molecule, the “Measured mean concentration” value ([2]; rabbit ST03, 90 min after administration) was 20.4 ± 1.7 ng/mL, the “Measured mean concentration” value ([2]; rabbit ST03, 120 min after administration) was 6.5 ± 0.1 ng/mL and the “Measured mean concentration” value ([2]; rabbit ST04, 15 min after administration) was 5.7 ± 0.2 ng/mL. The “Measured mean concentration” value ([2]; rabbit ST04, 30 min after administration) was 7.3 ± 0.3 ng/mL, the “Measured mean concentration” value ([2]; rabbit ST04, 60 min after administration) was 9.5 ± 0.5 ng/mL and the “Measured mean concentration” value ([2]; rabbit ST04, 90 min after administration) was 14.2 ± 0.2 ng/mL. The “Measured mean concentration” value ([2]; rabbit ST04, 120 min after administration) was 9.7 ± 0.2 ng/mL, the “Measured mean concentration” value ([2]; rabbit ST04, 180 min after administration) was 2.8 ± 0.2 ng/mL and the “Measured mean concentration” value ([2]; rabbit ST04, 480 min after administration) was 0.7 ± 0.01 ng/mL. The “Measured mean concentration” value ([2]; rabbit ST04, 720 min after administration) was 0.6 ± 0.01 ng/mL, the “Measured mean concentration” value ([2]; rabbit ST04, 1440 min after administration) was 0 ng/mL and the “Measured mean concentration” value ([2]; rabbit ST05, 15 min after administration) was 6.3 ± 0.2 ng/mL. For the same molecule, the “Measured mean concentration” value ([2]; rabbit ST05, 30 min after administration) was 12.7 ± 0.3 ng/mL, the “Measured mean concentration” value ([2]; rabbit ST05, 60 min after administration) was 18.5 ± 0.2 ng/mL and the “Measured mean concentration” value ([2]; rabbit ST05, 90 min after administration) was 21.2 ± 0.2 ng/mL. For the same molecule, the “Measured mean concentration” value ([2]; rabbit ST05, 120 min after administration) was 5.1 ± 0.3 ng/mL, the “Measured mean concentration” value ([2]; rabbit ST05, 180 min after administration) was 2.9 ± 0.07 ng/mL and the “Measured mean concentration” value ([2]; rabbit ST05, 480 min after administration) was 1.4 ± 0.08 ng/mL. For the same molecule, the “Measured mean concentration” value ([2]; rabbit ST05, 720 min after administration) was 0.9 ± 0.04 ng/mL, the “Measured mean concentration” value ([2]; rabbit ST05, 1440 min after administration) was 0 ng/mL and the “Measured mean concentration” value ([2]; rabbit ST06, 15 min after administration) was 7.0 ± 0.3 ng/mL. The “Measured mean concentration” value ([2]; rabbit ST06, 30 min after administration) was 13.9 ± 0.2 ng/mL, the “Measured mean concentration” value ([2]; rabbit ST06, 60 min after administration) was 20.4 ± 0.2 ng/mL and the “Measured mean concentration” value ([2]; rabbit ST06, 90 min after administration) was 25.8 ± 0.1 ng/mL. The “Measured mean concentration” value ([2]; rabbit ST06, 120 min after administration) was 7.6 ± 0.09 ng/mL, the “Measured mean concentration” value ([2]; rabbit ST06, 180 min after administration) was 3.3 ± 0.08 ng/mL and the “Measured mean concentration” value ([2]; rabbit ST06, 480 min after administration) was 1.2 ± 0.08 ng/mL. For the same molecule, the “Measured mean concentration” value ([2]; rabbit ST06, 720 min after administration) was 0.7 ± 0.02 ng/mL, the “Measured mean concentration” value ([2]; rabbit ST06, 1440 min after administration) was 0 ng/mL and the “presence in plasma samples after 24 hours” value ([2]; rabbits, 24 hours after intramuscular administration) was “not found”. For the same molecule, the “apparent volume of distribution” value ([2]; rabbits, estimated as ratio of clearance to elimination rate constant, data not shown) was “extensively distributed throughout the body”.
